# Legend:
# cultured PGCLC [1] = test: Immunofluorescence analysis of STRA8, SCP3, DDX4 in cultured PGCLC; format: cell-based, mouse
# Description: (§1) The PGC/PGCLC expansion medium was constituted of 10% KSR, 2.5% FBS, 0.1 mM NEAA, 1 mM sodium pyruvate, 2 mM L-glutamine, 0.1 mM 2-mercaptoethanol, 100 U/ml penicillin, 0.1 mg/ml […] streptomycin, […] forskolin, and 10 μM rolipram. The entire medium was changed every 2 days from c3. Cytokines/compounds for induction of female fate were provided from c3 to the end of culture. RA and BMP concentrations used were 100 nM and 300 ng/ml, respectively, unless otherwise specified. Brightfield and fluorescence images were captured using an IX73 inverted microscope (Olympus).
# (§2) Immunofluorescence (IF) analysis was performed as described previously (Hayashi et al, 2012). The following primary antibodies were used: chicken anti-GFP (ab13970; Abeam), rabbit anti-DDX4 (ab13840; Abeam), mouse anti-DDX4 (ab27591; Abeam), rabbit anti-DAZL (ab34129; Abeam), goat anti-DAZL (sc-27333; Santa Cruz), rabbit anti-STRA8 (ab49602; Abeam), mouse anti-SYCP3 (ab97672; Abeam) and rabbit anti-TEX14 (ab41733; Abeam)IgG. The following secondary antibodies were used: Alexa Fluor 488-goat anti-mouse or chicken IgG; Alexa Fluor 568-goat anti-rabbit IgG and Alexa Fluor 633-goat anti-mouse, anti-chicken IgG; Alexa Fluor 488-donkey anti-mouse IgG; Alexa Fluor 568-donkey anti-rabbit IgG and Alexa Fluor 633-donkey anti-goat IgG. IF images were acquired using a confocal microscope [FV1000 (Olympus) or LSM780 (Zeiss)].
# [2] = tested on: PGCLCs induced from BVSCVR ESC (XX); test: BVSC and VR expression by FACS in cultured PGCLC; format: cell-based, mouse; conditions: added at c3, read at c9; varying concentrations
# Description: as §1
# (§3) The preparation of d4/c0 PGCLC for FACS is described in “ESC culture/induction and PGCLC induction/culture”. To isolate germ cells in vivo, fetal gonads of BVSC, VR or SG mice were cut and processed for FACS according to the procedure described for d4/c0 PGCLC. Culture PGCLC was also prepared by the same method except that, after dissociation, the cells were washed with 0.1% BSA-DMEM containing 100 μg/ml DNase (Sigma-Aldrich), lysed DNA from dead cells was digested to prevent the formation of cell/debris clumps. Fluorescent activity of BV/SG, SC, or DT/VR was detected with FITC, Horizon V500 or PE-Texas Red channels, respectively. FACS data was analyzed using FlowJo or FACS Diva software package.
# PGC at E11.5 = test: Ex vivo culture of E11.5 PGC, SCP3/DDX4/SG expression at c4; format: cell-based, mouse; conditions: cultured 4 days; RA alone
# Description: as §2
# [3] = tested on: PGCLC induced from BVSCDT ESC(XY); test: Screening for factors inducing female germ cell fate: DT and BV expression by FACS at c7; format: cell-based, mouse; conditions: added from c3, read at c7; RA 100 nM, cytokines 500 ng/ml; BMPs in combination with RA
# Description: as §1, §3
# In the signal inhibitory experiment, LDN193189 (#04-0074; Stemgent) and BMS493 (B6688; Sigma-Aldrich) dissolved in DMSO were used as ALK2/3 inhibitor and RAR inhibitor, respectively.
# BV/SC(+) cells = test: Cell cycle analysis by EdU and 7AAD uptake in PGCLC culture; format: cell-based, mouse; conditions: RA alone; c9
# Description: Cell cycle analysis was performed using the Click-iT EdU Flow Cytometry Assay Kit (C10424; Thermo Fischer Scientific) according to the manufacturer's instructions. Cultured PGCLC was treated with 10 μg/ml EdU for 30 min to 2 hr and analyzed by FACS.
# BV (+) d4 PGCLCs = test: Compound library screening for PGCLC proliferation (BV fluorescence by cell analyzer); format: cell-based, mouse; conditions: three CsA entries in the screening data, two exceeded; 10 μM and 1 μM
# Description: d4 PGCLC was seeded by FACS on m220-5 feeders in 96-well plates and BV fluorescence was monitored by cell analyzer (Cellavista; SynenTec). Fluorescence photograph for BV was taken by Cellavista cell analyzer with the following settings: 10× objectives; exposure time: 140 μsec; gain: 4×; binning: 4×4; excitation: 500/24 nm; emission: 542/27 nm. BV fluorescence was detected using the following algorithm/attribute parameters: sensitivity: 10; region merging: 200; min. granule intensity: 50; well edge distance: 200; contrast: 1; size: 3,000; intensity: 255; roughness: 500; granularity: 100; granule intensity: 255; granule count: 10,000; longishness: 100; compactness: 1. The value of “cell nucleus” was used for the detection of BV fluorescence.
# The compound library was screened at concentrations of 10 μM and 1 μM. […] 200 BV (+) d4 PGCLCs induced from BDF1-2 ESC were seeded in the wells of a 96-well plate, and BV fluorescence was measured on the Cellavista cell analyzer on day 1 of culture (c1), c3, c5 and c7. The value of “cell nucleus” was used for the detection of BV fluorescence. […] For each compound, the fold difference in BV fluorescence between c1 and c7 was calculated for each compound and compounds with a fold difference value exceeding 3SD of the mean of the negative control were identified as those that potentiate PGCLC proliferation.
# cultured PGCLC [4] = test: Cell cycle analysis of cultured PGCLC (BrdU/EdU, FACS); format: cell-based, mouse; conditions: FR10+CsA compared to FR10 alone
# Description: The cell cycle status of ESC, EpiLC, d4, d4c3, d4c5 and d4c7 PGCLC(BDF1-2) at E13.5, E14.5 and E15.5 and male germ cells was examined in the same manner as in a previous report (Kagiwada et al, 2013). To label the cultured cells, the cells were incubated with BrdU (10 μM) for 30 min. To label gem cells, female mice (ICR) were mated with Stella-EGFP males and pregnant females were intraperitoneally injected with 1 mg BrdU and embryos were harvested 30 min later. Cultured cells or male gonads were dispersed in single cells by TrypLE treatment. To detect BrdU uptake, the APC-BrdU Flow Kit (BD Biosciences) was used according to the manufacturer's instructions. The stained samples were analyzed using BD FACSAriaIII (BD) with FACS Diva (BD) software, and PGCLC or male gem cells were respectively identified by BV or Stella-EGFP fluorescence. Three biological replicates were analyzed for each sample.
# The analysis was performed as in Example [I] except that EdU (10 μM) was used in place of BrdU, and Click-iT™ Plus EdU Alexa Fluor™ 647 Flow Cytometry Assay Kit (Thermo Fisher Scientific) was used for detection of EdU uptake.
# d4 PGCLC = test: Expansion culture of d4 PGCLC on m220-5 feeder (cell number fold increase); format: cell-based, mouse
# Description: (§4) Since the m220-5 feeder treated with MMC was vulnerable to forskolin and rolipram, m220-5 cells were subcultured 3 times with both forskolin and rolipram each at 10 μM and adapted to these compounds before MMC treatment (1-2 μg/ml for 2 hr). d4 PGCLC or E9.5 PGC(BDF1×Stella-EGFP) was selected by FACS, and the cells were seeded on m220-5 cells in GMEM medium containing 10% KSR, 0.1 mM NEAA, 1 mM sodium pyruvate, 0.1 mM 2-mercaptoethanol, 100 U/ml penicillin, 0.1 mg/ml streptomycin, 2 mM L-glutamine, 2.5% FCS, 100 ng/ml SCF, 10 μM forskolin, and 10 μM rolipram. Half of the culture medium was changed every 2 days.
# (§5) Expansion culture of PGC/PGCLC to investigate the combined effect of cyclosporin A (CsA) was performed as in Example [I], except that 5 μM CsA was added to the medium in addition to 10 μM forskolin and 10 μM loripram (FR10).
# PGCLC = test: CsA or FK506 alone at various concentrations on PGCLC proliferation (fold difference d7/d1); format: cell-based, mouse; conditions: 10, 5, 1, 0 μM tested, without FR10
# d4c7 PGCLC = test: Detection of apoptotic cells (Annexin V); format: cell-based, mouse; conditions: FR10+CsA compared to FR10 alone
# Description: d4c7 PGCLC cultured in FR10 or FR10+CsA was dispersed in single cells by TrypLE treatment, and stained using Annexin V Apoptosis Detection Kit APC (eBioscience) according to the manufacturer's instructions. The stained samples were analyzed using BD FACSAriaIII (BD) with FACSDiva (BD) software, and PGCLC was identified by BV fluorescence. Three biological replicates were analyzed for each sample.
# [5] = tested on: testes of neonatal W/Wv mice; test: Transplantation of amplified PGCLC into testes of neonatal W/Wv mice (spermatogenesis, offspring); format: in vivo, mouse; conditions: d4c7 PGCLC; neonatal W/Wv recipients
# Description: After purification of PGCLC by FACS, 1×10^4-1×10^5 cells per testis were injected into the testes of randomly selected neonatal (7 days old) or adult W/W^v mouse, as previously reported (Chuma et al, 2005). Where necessary, anti-mouse CD4 antibody ([…] per dose, clone GK1.5; Biolegend) was injected intraperitoneally on day 0, 2 or 4 for immunosuppression (Kanatsu-Shinohara et al, 2003). To assess pregnancy, recipients at 10 weeks post-transplant were mated with BDF1 females. The genotype of BVSC transgene progeny was determined as previously reported (Ohinata et al, 2008). For HE staining, testis or epididymis was fixed with Bouin's solution and embedded in paraffin, and sections were produced.
# Spermatozoons were collected from the cauda epididymis and pre-incubated in HTF medium (Kyudo Co., Ltd.) for 1 hr at 37° C. Eggs were collected from BDF1 females that were superovulated by injecting PMSG and hCG and fertilized with sperm in HTF medium. The obtained 2-cell embryos were transferred to the fallopian tube of pseudopregnant ICR females 0.5 days after pregnancy (dpc). Pups were delivered by cesarean section at 18.5 dpc.
# Spermatozoons were collected from the mouse testis that received transplantation of PGCLC by the method described in Example [I], and directly injected with a micromanipulator into the ovum collected from BDF1 females that were superovulated by injecting PMSG and hCG. […]
# E9.5 PGC = test: Expansion culture of E9.5 PGC on m220-5 feeder; format: cell-based, mouse; conditions: CsA in addition to forskolin and PDE4 inhibitor (FR10)
# Description: as §4, §5
Compound,BV/SC(+) cells expressing STRA8 (cultured PGCLC [1]; RA alone) [%],"induction of VR/DDX4 and SCP3 (+) cells (meiotic entry) (cultured PGCLC [1]; cultured PGCLC, c9, BMP4, 5, 7 combined with RA, BMS493 with BMP2, LDN193189 with RA and BMP2)",BVSC and VR expression [2],induction of SCP3 (PGC at E11.5),DT and BV expression in BV (+) cells [3],entry into meiosis by cell cycle profile (BV/SC(+) cells),fold difference (d7/d1) of BV signal in compound library screening (BV (+) d4 PGCLCs) [SD],percentage of S-stage cells (cultured PGCLC [4]),proliferation of PGCLC on average with CsA added (d4 PGCLC; 5 μM CsA in addition to forskolin and PDE4 inhibitor (FR10)),colony morphology and BVSC expression of expanded cells (d4 PGCLC; expansion culture on m220 feeder),most optimal concentration for growing PGCLCs (PGCLC) [µM],percentage of apoptotic cells (d4c7 PGCLC),function of amplified PGCLC after transplantation into testes [5],proliferation of E9.5 PGC with CsA added (E9.5 PGC)
"CC1=C(/C=C/C(C)=C/C=C/C(C)=C/C(=O)O)C(C)(C)CCC1 [RA, all trans retinoic acid]",~77.7,did not activate VR/DDX4 or SCP3,did not activate VR,Neither control culture nor culture with RA alone induced SCP3,increased DT levels,did not go into meiosis even in c9,–,–,–,–,–,–,–,–
"cyclo{-[(2S,3R,4R,6E)-3-hydroxy-4-methyl-2-methylaminooct-6-enoyl]-L-2-aminobutanoyl-N-methylglycyl-N-methyl-L-leucyl-L-valyl-N-methyl-L-leucyl-L-alanyl-D-alanyl-N-methyl-L-leucyl-N-methyl-L-leucyl-N-methyl-L-valyl-} [CsA]",–,–,–,–,–,–,> 3,increased percentage of S-stage,about 50 fold,formed flat colonies and strongly expressed BVSCs,5,decreased percentage of apoptotic cells,capable of differentiating into functional spermatozoa,about 16 fold

# Reference: US20200362303A1, “MAINTENANCE-AND-AMPLIFICATION METHOD AND DIFFERENTIATION INDUCTION METHOD FOR PRIMORDIAL GERM CELLS/PRIMORDIAL GERM CELL-LIKE CELLS” (KYOTO UNIVERSITY, priority 2017, published 2020)
